Assay results as given in patent US20080161305A1, “C-Met Modulators and Methods of Use” (EXELIXIS, INC., priority 2005, published 2008).

Columns and labels:
Assay type in all cases: biochemical
[1] = molecular target: T1, Flt-4 (baculovirus expressed human Flt-4 kinase domain D725-R1298) (Homo sapiens, UniProt P35916); experiment: flt-4 Alphascreen Tyrosine Kinase assay; conditions: 5 μM ATP, 1 nM Flt-4; read-out: flt4 IC50
T1 construct: human Flt-4 kinase domain D725-R1298; made in house
Method: (§1) Kinase activity and compound inhibition are investigated using one or more of the three assay formats described below. The ATP concentrations for each assay are selected to be close to the Michaelis-Menten constant (KM) for each individual kinase. Dose-response experiments are performed at 10 different inhibitor concentrations in a 384-well plate format. The data are fitted to the following four-parameter equation:
(§2) Y=Min+(Max−Min)/(1+(X/IC50)̂H)
(§3) where Y is the observed signal, X is the inhibitor concentration, Min is the background signal in the absence of enzyme (0% enzyme activity), Max is the signal in the absence of inhibitor (100% enzyme activity), IC50 is the inhibitor concentration at 50% enzyme inhibition and H represents the empirical Hill's slope to measure the cooperativity. Typically H is close to unity. c-Met Assay
Biochemical activity for flt-4 was assessed using an Alphascreen Tyrosine Kinase protocol. AlphaScreen™ (Perkin Elmer) technology is a proximity assay employing microparticles. […] Substrate phosphorylation was measured by addition of donor/acceptor beads by chemiluminescence following donor-acceptor bead complex formation. […] After 2-16 hr incubation at ambient temperature plates were read using an AlphaQuest reader (Perkin Elmer). IC50 values correlate well with those determined by radiometric assays.

c-Kit kinase = c-Kit kinase (Homo sapiens, UniProt P10721); experiment: c-Kit AlphaScreen assay
Chain of c-Kit kinase (P10721 26-976): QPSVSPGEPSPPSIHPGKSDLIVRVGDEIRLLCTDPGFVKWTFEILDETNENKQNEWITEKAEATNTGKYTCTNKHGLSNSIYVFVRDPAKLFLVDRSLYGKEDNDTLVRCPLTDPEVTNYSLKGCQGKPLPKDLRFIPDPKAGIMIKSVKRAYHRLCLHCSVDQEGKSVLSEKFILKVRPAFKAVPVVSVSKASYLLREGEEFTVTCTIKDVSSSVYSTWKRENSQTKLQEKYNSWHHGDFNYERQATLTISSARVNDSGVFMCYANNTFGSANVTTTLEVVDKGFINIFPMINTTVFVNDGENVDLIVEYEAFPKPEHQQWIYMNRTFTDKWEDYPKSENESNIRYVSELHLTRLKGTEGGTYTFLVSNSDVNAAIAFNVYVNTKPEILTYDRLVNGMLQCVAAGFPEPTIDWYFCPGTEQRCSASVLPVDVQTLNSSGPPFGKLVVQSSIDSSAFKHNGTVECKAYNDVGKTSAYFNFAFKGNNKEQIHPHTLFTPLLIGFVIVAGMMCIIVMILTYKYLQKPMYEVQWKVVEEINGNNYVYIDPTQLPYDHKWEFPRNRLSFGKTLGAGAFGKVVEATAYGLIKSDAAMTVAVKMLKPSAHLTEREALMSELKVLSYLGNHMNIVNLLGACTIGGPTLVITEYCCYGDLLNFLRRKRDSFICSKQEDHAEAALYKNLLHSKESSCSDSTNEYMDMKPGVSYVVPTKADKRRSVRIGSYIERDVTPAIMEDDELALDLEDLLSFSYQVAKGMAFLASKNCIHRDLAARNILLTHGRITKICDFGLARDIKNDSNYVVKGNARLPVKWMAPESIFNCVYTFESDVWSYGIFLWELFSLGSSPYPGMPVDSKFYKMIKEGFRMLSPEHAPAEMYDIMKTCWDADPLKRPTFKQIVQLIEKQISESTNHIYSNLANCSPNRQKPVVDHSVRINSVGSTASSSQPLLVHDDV
Method: as §1, §2, §3
c-Kit biochemical activity was assessed using AlphaScreen™ (Perkin Elmer) technology, described above. Test compounds, ATP, biotinylated poly(Glu, Tyr) and c-Kit kinase were combined in a volume of 20 μL in a 384-well white, medium binding microtiter plate (Greiner). Reaction mixtures were incubated for 1 hr at ambient temperature. […] After 16 hr incubation at ambient temperature plates were read using an AlphaQuest reader (Perkin Elmer).

[2] = molecular target: c-Met (baculovirus expressed human c-Met kinase domain P948-S1343) (Homo sapiens, UniProt P08581); experiment: c-Met Luciferase-Coupled Chemiluminescent Kinase assay (LCCA); conditions: 1 μM ATP, 10 nM c-Met
Chain of c-Met (baculovirus expressed human c-Met kinase domain P948-S1343) (P08581 1078-1345 limits assumed): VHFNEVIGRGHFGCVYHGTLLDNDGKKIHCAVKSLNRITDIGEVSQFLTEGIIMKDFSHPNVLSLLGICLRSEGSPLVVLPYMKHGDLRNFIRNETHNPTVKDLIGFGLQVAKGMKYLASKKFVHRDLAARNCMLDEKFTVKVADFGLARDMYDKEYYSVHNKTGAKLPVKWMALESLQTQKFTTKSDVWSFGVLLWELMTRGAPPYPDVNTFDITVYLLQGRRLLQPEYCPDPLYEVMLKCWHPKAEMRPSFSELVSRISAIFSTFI
Method: as §1, §2, §3
c-Met biochemical activity was assessed using a Luciferase-Coupled Chemiluminescent Kinase assay (LCCA) format as described above. Again, kinase activity was measured as the percent ATP remaining following the kinase reaction. Remaining ATP was detected by luciferase-luciferin-coupled chemiluminescence. […] The mixture is incubated at ambient temperature for 2 hours after which 20 uL luciferase-luciferin mix is added and the chemiluminescent signal read using a Wallac Victor^2 reader. […]

[3] = molecular target: T2, KDR (baculovirus expressed human KDR kinase domain D807-V1356) (Homo sapiens, UniProt P35968); experiment: KDR Luciferase-Coupled Chemiluminescent Kinase assay (LCCA); conditions: 3 μM ATP, 5 nM KDR
T2 construct: human KDR kinase domain D807-V1356; made in house
T2 sequence (P35968 807-1356): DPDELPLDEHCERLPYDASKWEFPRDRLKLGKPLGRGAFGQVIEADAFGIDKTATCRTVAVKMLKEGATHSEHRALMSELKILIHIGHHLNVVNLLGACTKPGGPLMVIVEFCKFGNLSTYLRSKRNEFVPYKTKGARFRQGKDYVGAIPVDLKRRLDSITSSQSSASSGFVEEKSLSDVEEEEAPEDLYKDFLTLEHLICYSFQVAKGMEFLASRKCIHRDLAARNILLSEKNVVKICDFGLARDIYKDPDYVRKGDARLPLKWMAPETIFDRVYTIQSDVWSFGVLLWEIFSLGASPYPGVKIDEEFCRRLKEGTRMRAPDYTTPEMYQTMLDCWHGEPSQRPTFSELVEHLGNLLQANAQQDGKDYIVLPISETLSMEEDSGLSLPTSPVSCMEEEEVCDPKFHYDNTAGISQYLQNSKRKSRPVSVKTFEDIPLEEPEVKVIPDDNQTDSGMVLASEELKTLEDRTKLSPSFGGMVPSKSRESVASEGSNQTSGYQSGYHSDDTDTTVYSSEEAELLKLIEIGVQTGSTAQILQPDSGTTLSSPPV
Method: as §1, §2, §3
KDR biochemical activity was assessed using a Luciferase-Coupled Chemiluminescent Kinase assay (LCCA) format. Kinase activity was measured as the percent ATP remaining following the kinase reaction. Remaining ATP was detected by luciferase-luciferin-coupled chemiluminescence. […] The mixture is incubated at ambient temperature for 4 hours after which 20 uL luciferase-luciferin mix is added and the chemiluminescent signal read using a Wallac Victor^2 reader. […]

[4] = molecular target: T3, Flt-3 (baculovirus expressed human Flt-3 kinase domain R571-S993) (Homo sapiens, UniProt P36888); experiment: flt-3 Luciferase-Coupled Chemiluminescent Kinase assay (LCCA); conditions: 5 μM ATP, 5 nM Flt-3; read-out: flt3 IC50
T3 construct: human Flt-3 kinase domain R571-S993; made in house
T3 sequence (P36888 571-993): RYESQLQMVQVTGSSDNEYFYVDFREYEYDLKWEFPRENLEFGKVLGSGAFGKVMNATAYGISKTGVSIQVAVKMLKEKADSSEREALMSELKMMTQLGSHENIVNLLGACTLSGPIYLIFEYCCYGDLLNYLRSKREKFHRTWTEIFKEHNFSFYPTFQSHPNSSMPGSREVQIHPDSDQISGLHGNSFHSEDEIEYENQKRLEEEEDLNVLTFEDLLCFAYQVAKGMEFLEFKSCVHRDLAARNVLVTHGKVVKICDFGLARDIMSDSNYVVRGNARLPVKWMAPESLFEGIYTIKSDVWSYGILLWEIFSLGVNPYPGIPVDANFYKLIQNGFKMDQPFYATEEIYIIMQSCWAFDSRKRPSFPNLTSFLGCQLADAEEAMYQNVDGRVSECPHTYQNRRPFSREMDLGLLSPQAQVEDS
Method: as §1, §2, §3
Biochemical activity for flt-3 was assessed using a Luciferase-Coupled Chemiluminescent Kinase assay (LCCA) format. Kinase activity was measured as the percent ATP remaining following the kinase reaction. Remaining ATP was detected by luciferase-luciferin-coupled chemiluminescence. […] The mixture is incubated at ambient temperature for 3 hours after which 20 uL luciferase-luciferin mix is added and the chemiluminescent signal read using a Wallac Victor^2 reader. […]

Measured: IC50

T1 sequence (P35916 725-1298 isoform P35916-1): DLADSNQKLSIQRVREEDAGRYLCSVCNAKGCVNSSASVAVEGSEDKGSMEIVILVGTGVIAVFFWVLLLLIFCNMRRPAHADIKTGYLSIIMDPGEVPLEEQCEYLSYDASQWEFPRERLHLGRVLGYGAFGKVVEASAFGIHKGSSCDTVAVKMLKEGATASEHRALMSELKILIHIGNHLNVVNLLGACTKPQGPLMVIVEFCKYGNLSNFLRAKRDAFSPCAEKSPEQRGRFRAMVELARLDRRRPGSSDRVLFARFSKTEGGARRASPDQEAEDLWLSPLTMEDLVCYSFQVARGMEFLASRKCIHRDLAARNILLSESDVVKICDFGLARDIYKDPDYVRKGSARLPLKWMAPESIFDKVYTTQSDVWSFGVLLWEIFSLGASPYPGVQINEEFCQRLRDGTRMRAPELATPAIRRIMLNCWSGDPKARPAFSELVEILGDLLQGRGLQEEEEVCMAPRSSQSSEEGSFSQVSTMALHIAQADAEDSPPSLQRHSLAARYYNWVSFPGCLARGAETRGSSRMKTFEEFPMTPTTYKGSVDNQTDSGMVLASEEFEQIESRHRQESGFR

COc1cc2c(Oc3ccc(NC(=O)C(=O)NCCc4ccc(F)cc4)cc3F)ccnc2cc1OCCCN1CCOCC1 [Entry 1, N-[3-fluoro-4-({6-(methyloxy)-7-[(3-morpholin-4-ylpropyl)oxy]quinolin-4-yl}oxy)phenyl]-N′-[2-(4-fluorophenyl)ethyl]ethanediamide]
< 50 nM: all assays above
